{"source": "patent US20190345250A1", "about": "“ANTIBODY DRUG CONJUGATES” (NOVARTIS AG, priority 2013, published 2019)", "key": {"[1]": {"tested_on": "CHGA119 patient-derived primary gastric tumor xenograft model", "assay": "Antitumor activity and body weight in CHGA119 patient-derived xenograft", "description": "In these studies, CHGA119 tumor fragments in size of 2mm ×2mm×2mm were implanted subcutaneously (s.c.) into female nu/nu athymic mice. […] Tumors were calipered twice a week."}, "complement factor Clq": {"molecular_target": "T1, complement factor Clq (Homo sapiens, UniProt P02745+P02746+P02747)", "T1 construct": "purchased Sigma C1740-1mg", "T1 sequence (P02745 23-245)": "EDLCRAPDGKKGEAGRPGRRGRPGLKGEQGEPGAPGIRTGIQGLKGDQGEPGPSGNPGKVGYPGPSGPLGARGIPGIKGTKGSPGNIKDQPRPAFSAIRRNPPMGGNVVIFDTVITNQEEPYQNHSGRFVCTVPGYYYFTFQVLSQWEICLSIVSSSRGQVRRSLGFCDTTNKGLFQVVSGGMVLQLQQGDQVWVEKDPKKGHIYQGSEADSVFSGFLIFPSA", "T1 sequence (P02746 28-253)": "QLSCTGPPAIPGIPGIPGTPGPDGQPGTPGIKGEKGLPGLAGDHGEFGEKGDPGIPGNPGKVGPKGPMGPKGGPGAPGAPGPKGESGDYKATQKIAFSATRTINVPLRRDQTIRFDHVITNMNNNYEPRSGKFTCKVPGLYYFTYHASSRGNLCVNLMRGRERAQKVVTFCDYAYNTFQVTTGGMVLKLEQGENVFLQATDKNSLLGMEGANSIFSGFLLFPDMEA", "T1 sequence (P02747 29-245)": "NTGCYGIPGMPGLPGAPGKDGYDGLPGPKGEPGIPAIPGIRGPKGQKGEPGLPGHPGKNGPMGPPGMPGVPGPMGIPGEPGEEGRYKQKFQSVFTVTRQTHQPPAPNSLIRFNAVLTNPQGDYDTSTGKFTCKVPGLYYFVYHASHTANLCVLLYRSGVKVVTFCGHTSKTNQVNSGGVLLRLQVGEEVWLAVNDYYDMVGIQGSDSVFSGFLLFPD", "assay": "Clq binding ELISA", "settings": "antibody coated 25 to 0.02 μg/ml", "procedure": "In additional studies, the ability of the unconjugated anti-FGFR2 antibodies to bind the complement factor Clq was evaluated. The binding of the complement factor Clq is the initial step leading to complement dependent cytotoxicity (CDC) and cell lysis in vivo. In these studies the surface of the wells of 96-well microtiterplates (Nunc, Maxisorp, catalog # 439454) were coated with serial dilutions of the antibodies 12433, 12425, N297A_12425 and 10164 over night at 4° C. in the dark (all in a concentration range from 25 to 0.02 μg/ml). The commercially available antibody, Rituximab served as a positive control. In order to monitor the amount of bound antibody analyte on the microtiterplate, this procedure was performed twice per plate utilizing the second dilution (in triplicate) for determining the coating efficacy of the analyte to the plate. Clq binding was quantified by adding a constant concentration of Clq (Sigma; Complement component Clq catalog # C1740-1mg) and detected using a polyclonal goat-anti-human Clq antibody conjugated to Horse Radish Peroxidase HRP (AbD Serotec; Sheep Anti-Human Clq:HRP; Catalogue number 2221-5004P). The control of the coating efficiency was determined in the second dilution series with a peroxidase-conjugated goat-anti-human IgG antibody fragment (Jackson ImmunoResearch; catalog # 109-036-003; AffiniPure F(ab′2) fragment Goat Anti-Human IgG (H+L)). […]"}, "[2]": {"settings": "CHGA119-tumor bearing mice, ADCs 10 mg/kg i.v. q2wk, BGJ398 10 mg/kg p.o. qd"}}, "data": [{"compound": "CCN1CCN(c2ccc(Nc3cc(N(C)C(=O)Nc4c(Cl)c(OC)cc(OC)c4Cl)ncn3)cc2)CC1", "note": "[BGJ398, 3-(2,6-Dichloro, 3,5-dimethoxy-phenyl)-1-{6-[4-(4-ethyl-piperazin-1-yl)-phenylamino]-pyrimidin-4-yl}-1-methyl-urea]", "values": [{"measurement": "Host response: % body weight change (mean ± SEM)", "setting": "[1]; [2]", "result": "−3.7 ± 3", "unit": "%"}, {"measurement": "Host response: Mean body weight change (g ± SEM)", "setting": "[1]; [2]", "result": "-0.8 ± 0.7", "unit": "g"}, {"measurement": "Host response: Survival (survivors/total)", "setting": "[1]; [2]", "result": "8/8"}, {"measurement": "T/C", "setting": "[1]; single agent, 10 mg/kg, after 5 weeks of treatment", "result": 33, "unit": "%"}]}, {"compound": "Rituximab: commercially available antibody, positive control for Clq binding", "values": [{"measurement": "Clq binding potency (EC50)", "setting": "complement factor Clq", "result": "about the same"}]}]}
